# Legend:
# [1] = test system: HOM2 cells; assay: 35S-methionine/cysteine pulse/chase of HOM2 cells, immunoprecipitation of class II with Tu36, SDS-PAGE (Ii processing and SDS-stable peptide-loaded αβ dimers)
# [2] = test system: cathepsin D; assay: Inhibition of cathepsin D activity in human monocytes; format: cell-based
# [3] = biological target: cathepsin D (Homo sapiens, UniProt P07339); details: Alteri et al. 1993; cited from earlier work
# [4] = biological target: cathepsin S (Homo sapiens, UniProt P25774); assay: Active site labeling of cysteine proteases with Cbz-[125I]-Tyr-Ala-CN2 in HOM2 cells after preincubation with inhibitor; details: LHVS concentration of 1 nM, 37°C 1 hour prior to labeling
# cathepsin S, sequence (P25774 115-331): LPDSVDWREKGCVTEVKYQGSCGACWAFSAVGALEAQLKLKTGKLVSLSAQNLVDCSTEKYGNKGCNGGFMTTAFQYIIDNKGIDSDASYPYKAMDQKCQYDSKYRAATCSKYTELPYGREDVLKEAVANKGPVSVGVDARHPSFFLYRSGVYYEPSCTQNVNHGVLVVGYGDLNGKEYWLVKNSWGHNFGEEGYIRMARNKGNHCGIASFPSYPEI
# [5] = test system: Peripheral blood mononuclear cells (PBMC's); format: cell-based, human; details: 3-5 days
# [6] = biological target: T1, cathepsin H (Homo sapiens, UniProt P09668); assay: Inhibition of purified human cathepsin H; format: biochemical; details: concentration not given
# T1 sequence (P09668 98-335): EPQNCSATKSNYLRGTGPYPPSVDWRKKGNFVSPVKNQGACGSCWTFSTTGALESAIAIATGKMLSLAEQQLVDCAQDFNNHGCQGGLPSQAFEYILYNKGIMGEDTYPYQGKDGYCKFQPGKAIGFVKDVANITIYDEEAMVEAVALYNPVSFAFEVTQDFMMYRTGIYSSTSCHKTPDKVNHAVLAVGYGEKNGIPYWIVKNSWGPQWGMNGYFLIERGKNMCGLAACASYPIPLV
# [7] = biological target: cathepsin B (Homo sapiens, UniProt P07858); assay: Active site labeling of cysteine proteases with Cbz-[125I]-Tyr-Ala-CN2 in HOM2 cells after preincubation with inhibitor; details: inhibitor concentration of 5 nM
# cathepsin D (Homo sapiens, UniProt P07339), sequence (P07339 65-412): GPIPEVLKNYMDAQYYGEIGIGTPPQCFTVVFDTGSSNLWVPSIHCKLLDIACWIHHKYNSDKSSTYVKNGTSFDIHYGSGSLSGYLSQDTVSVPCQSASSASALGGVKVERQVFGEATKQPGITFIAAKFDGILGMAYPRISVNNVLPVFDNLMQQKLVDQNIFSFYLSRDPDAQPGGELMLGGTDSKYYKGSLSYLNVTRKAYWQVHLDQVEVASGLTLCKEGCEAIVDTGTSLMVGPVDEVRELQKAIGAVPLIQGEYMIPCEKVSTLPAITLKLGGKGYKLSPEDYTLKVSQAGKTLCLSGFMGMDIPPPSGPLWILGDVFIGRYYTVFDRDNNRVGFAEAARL
smiles,measurement,setting,value
CCOC(=O)[C@H]1O[C@@H]1C(=O)N[C@@H](CC(C)C)C(=O)NCCC(C)C (relative stereo) [E64D],SDS-stable dimer formation,"[1]; E64D, concentration not stated in Example 2",decrease
CC(C)[C@H](NC(=O)[C@H](Cc1ccccc1)C[C@H](O)[C@H](Cc1ccccc1)NC(=O)OC(C)(C)C)C(=O)N[C@@H](Cc1ccccc1)C(=O)N1CCOCC1 [CGP 53437],SDS-stable complexes,"[1]; 5 µM or 50 µM CGP 53437, chase 5 hours",nor did it produce a decrease
same,inhibits cathepsin D activity in human monocytes,[2]; 5 µM,75%
same,inhibits cathepsin D activity in human monocytes,[2]; 50 µM,90%
same,inhibits cathepsin D,[3],nanomolar range
"CC(C)C[C@H](NC(=O)N1CCOCC1)C(=O)N[C@H](/C=C/S(=O)(=O)c1ccccc1)CCc1ccccc1 [LHVS, morpholinurea-leucine-homophenylalanine-vinylsulfone phenyl]",formation of SDS-stable complexes (peptide loading),"[1]; 1 nM and 5 nM LHVS, chase 5 hours",marked decrease
same,labeling of cathepsin S,[4],effectively inhibited
same,attenuation of 3H-thymidine uptake response to tetanus toxoid,[5],approximately 60%
same,inhibition of purified human cathepsin H,[6],not inhibited
same,labeling of cathepsin B,[7],"decreased, although some activity remained"
